Test systems include EKVX; UACC-257; LOX IMVI; TK-10; KM12; OVCAR-3; SNB-19; NCI-H460; SN12C; M19-MEL; SF-539; NCI-H23; U-251; SF-295; SR.
What all share (assay): growth of human tumour cells (NCI), 48 h

Molecules are shown by their SMILES.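 Step 1: Grow cells in 96-well plates. Step 2: Expose to compound for 48 hours at 5 concentrations. Step 3: Interpolate endpoints linearly; if unreached, use highest concentration. Abbreviation: GI50, concentration required for 50% inhibition of growth.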 The source made the active and inactive calls. Cut-off read from the data, not from the text of the source: active = GI50 up to about 1.1 µM and inactive = higher.

The source of these data is ChEMBL document CHEMBL1201862, “PubChem BioAssay data set” (2004).

For `N#C/C(=C\c1ccc(CP(=O)(O)O)cc1)C(N)=O`, the GI50 with EKVX, in the experiment with UACC-257, with LOX IMVI, in the experiment on TK-10, in the experiment on KM12 and in the experiment with OVCAR-3 was > 100 µM (inactive) throughout. Besides, the GI50 in the experiment on SNB-19, with NCI-H460, in the experiment on SN12C, in the experiment on M19-MEL, in the experiment on SF-539 and in the experiment on NCI-H23 was > 100 µM (inactive) throughout. The GI50 in the experiment with U-251 and in the experiment on SF-295 was > 100 µM (inactive) in each case.
For `COc1cc(C)c(O)c(C(=O)O)c1`, the GI50 with UACC-257, with LOX IMVI, with TK-10, in the experiment with SR, with KM12 and in the experiment on OVCAR-3 was > 100 µM (inactive) in each case. Moreover, the GI50 with SNB-19, in the experiment with NCI-H460, in the experiment with SN12C, with M19-MEL, in the experiment with NCI-H23 and in the experiment on U-251 was > 100 µM (inactive) throughout. In the experiment with SF-295, the GI50 is > 100 µM (inactive).
Turning to `O=c1ccn([C@@H]2C[C@H](CO)C[S+]([O-])C2)c(=O)[nH]1` (some centres not stated), the GI50 in the experiment on EKVX, in the experiment with UACC-257, with LOX IMVI, in the experiment with TK-10, with KM12 and in the experiment on OVCAR-3 was > 100 µM (inactive) in each case. Further, the GI50 with SNB-19, in the experiment on NCI-H460, in the experiment on SN12C, in the experiment with M19-MEL, in the experiment on SF-539 and in the experiment on NCI-H23 was > 100 µM (inactive) throughout. The GI50 in the experiment with U-251 and in the experiment on SF-295 was > 100 µM (inactive) throughout.
With `C=CC1(NS(=O)(=O)c2ccc(C)cc2)CCC(C(C)(C)C)CC1` (configuration not stated), the GI50 in the experiment on UACC-257 was > 100 µM (inactive); with TK-10, 88.5 µM (inactive); with SR, 56 µM (inactive); in the experiment with KM12, > 100 µM (inactive); in the experiment on OVCAR-3, 21.6 µM (inactive); with SNB-19, 36.6 µM (inactive). Also, the GI50 in the experiment on NCI-H460 was > 100 µM (inactive); in the experiment on SN12C, > 100 µM (inactive); in the experiment with M19-MEL it was > 100 µM (inactive); with SF-539, 64 µM (inactive); in the experiment on U-251 it was 35.6 µM (inactive).
`NC(=O)CC(N/C=C1/N=C(c2ccccc2)OC1=O)C(=O)O` (configuration not stated): the GI50 with EKVX, in the experiment on UACC-257, in the experiment with LOX IMVI, in the experiment with TK-10, in the experiment on KM12 and in the experiment with OVCAR-3 was > 100 µM (inactive) each time. For the same compound, the GI50 with SNB-19, in the experiment with NCI-H460, with M19-MEL, in the experiment on SF-539, in the experiment with NCI-H23 and with U-251 was > 100 µM (inactive) throughout. Also, the GI50 with SF-295 is > 100 µM (inactive).
As for `COc1cc([C@@H]2c3cc4c(cc3C(N)C3COC(=O)[C@@H]32)OCO4)cc(OC)c1O` (some centres not stated), the GI50 is 0.232 µM (active) in the experiment with UACC-257; 0.241 µM (active) with LOX IMVI; 0.401 µM (active) with TK-10; 0.0857 µM (active) in the experiment with SR; 0.17 µM (active) with SNB-19; 0.304 µM (active) in the experiment on NCI-H460. Also, the GI50 in the experiment on SN12C was 0.445 µM (active); with M19-MEL, 0.334 µM (active); in the experiment with SF-539 it was 0.189 µM (active); with NCI-H23 it was 0.373 µM (active); in the experiment on SF-295, 0.0624 µM (active).
On to `COc1ccc(/C=C2\C(=O)N(NC(C)=O)c3ccccc32)cc1`, for which the GI50 in the experiment on EKVX is 48.8 µM (inactive); in the experiment on UACC-257, > 100 µM (inactive); in the experiment on LOX IMVI, > 100 µM (inactive); in the experiment on TK-10 it was 46.5 µM (inactive); with KM12, 87.9 µM (inactive); in the experiment with OVCAR-3 it was 56.4 µM (inactive). In addition, the GI50 with SNB-19, in the experiment on NCI-H460, in the experiment with SN12C, in the experiment with M19-MEL, in the experiment on SF-539 and in the experiment on NCI-H23 was > 100 µM (inactive) throughout. Also, the GI50 in the experiment with U-251 and in the experiment with SF-295 was > 100 µM (inactive) throughout.
For `CC1(C)C(c2ccccc2)=NN(O)c2ccccc21`, the GI50 in the experiment on EKVX, in the experiment on UACC-257, in the experiment on TK-10, in the experiment with KM12, in the experiment with OVCAR-3 and in the experiment on SNB-19 was > 100 µM (inactive) throughout. Also, the GI50 in the experiment with NCI-H460, in the experiment with M19-MEL, in the experiment on SF-539, with NCI-H23, with U-251 and with SF-295 was > 100 µM (inactive) in each case.
`CC(=O)OC(CCC1(C)OC1COc1ccc(CCNC(=O)c2ccccc2)cc1)C(C)(C)OC(C)=O` (configuration not stated): the GI50 was 2.13 µM (inactive) in the experiment on UACC-257; 2.18 µM (inactive) in the experiment on LOX IMVI; 49.3 µM (inactive) in the experiment with TK-10; 0.493 µM (active) with SR; 15.6 µM (inactive) in the experiment on KM12; 10.3 µM (inactive) in the experiment with OVCAR-3. For the same compound, the GI50 with NCI-H460 is 13.1 µM (inactive); in the experiment on SN12C, > 100 µM (inactive); in the experiment with M19-MEL, 18.4 µM (inactive); in the experiment on SF-539, > 100 µM (inactive); with NCI-H23, 0.302 µM (active); with U-251, 37.3 µM (inactive). In the experiment with SF-295, the GI50 was 11.4 µM (inactive).
In the case of `COC(=O)C(C#N)=C1c2ccccc2Oc2ccccc21`, the GI50 in the experiment with EKVX was > 100 µM (inactive); in the experiment with UACC-257 it was > 100 µM (inactive); with LOX IMVI it was > 100 µM (inactive); in the experiment on TK-10 it was > 100 µM (inactive); in the experiment with KM12 it was > 100 µM (inactive); in the experiment on OVCAR-3 it was 21.5 µM (inactive). The GI50 in the experiment with SNB-19 was 41.6 µM (inactive); in the experiment on NCI-H460 it was > 100 µM (inactive); with SN12C it was 38.9 µM (inactive); in the experiment on M19-MEL, 60.1 µM (inactive); in the experiment with SF-539, 75.7 µM (inactive); in the experiment on NCI-H23, 56.9 µM (inactive). In addition, the GI50 with SF-295 was 46.5 µM (inactive).
For the compound `C=C[C@@]1(O)CCCC2=C(C(=O)OCC)CC[C@]21C`, the GI50 was > 100 µM (inactive) with EKVX; > 100 µM (inactive) with UACC-257; > 100 µM (inactive) with TK-10; 54.1 µM (inactive) in the experiment with SR; > 100 µM (inactive) in the experiment with KM12; > 100 µM (inactive) with OVCAR-3. Further, the GI50 was 47.5 µM (inactive) in the experiment with SNB-19; > 100 µM (inactive) in the experiment on NCI-H460; > 100 µM (inactive) with SN12C; > 100 µM (inactive) in the experiment with M19-MEL; > 100 µM (inactive) in the experiment on SF-539; > 100 µM (inactive) in the experiment with NCI-H23. Also, the GI50 in the experiment on U-251 and with SF-295 was > 100 µM (inactive) in each case.
